Patent US8372846B2, “Co-crystals and pharmaceutical compositions comprising the same” (Vertex Pharmaceuticals Incorporated, priority 2006, dated 2013)

Test: Solubility analyses in simulated intestinal fluid (HPLC of supernatant; solid form by XRPD)
Format: physicochemical
Settings: simulated intestinal fluid (pH 6.8); for XRPD (solid form): room temp.; for C, mg/mL Control: room temperature, VX-950 equivalents
Method: An aliquot of the sample was placed in a tube and then an aqueous medium was added. At set time points, an aliquot of supernatant was withdrawn, filtered through 0.45 PTFE micron filter (Millex, LCR, Millipore) and processed for high performance liquid chromatography (HPLC) analysis (Agilent 1100; Palo Alto, Calif., USA). The system was equipped with an autosampler set at 25° C. For the sample handling, an aliquot of the sample was diluted with acetonitrile at 1 to 1 by v/v ratio. The samples were run isocratically with the detector set at 270 nm. The column was XTerra® Phenyl column 150 mm×4.6 mm, 3.5 μm Particle Size (P/N 186001144) (Waters, Milford, Mass., USA). The mobile phase was potassium phosphate buffer (10 mM, pH=7.0):methanol at 60:40 (v/v) ratio. The run was done at the flow-rate of 1 mL/min and was completed within 15 min.

Compound: CCC[C@H](NC(=O)[C@@H]1[C@H]2CCC[C@H]2CN1C(=O)[C@@H](NC(=O)[C@@H](NC(=O)c1cnccn1)C1CCCCC1)C(C)(C)C)C(=O)C(=O)NC1CC1 [VX-950 alone]
- XRPD (solid form) (24 hours): Crystallizes by 24 hour
- XRPD (solid form) (up to 2 hours): Amorphous (up to 2 hours
- C, mg/mL Control (24 hour): Not
- C, mg/mL Control (line with XRPD 'by about 4 hours'): 0.0183 mg/mL
- C, mg/mL Control (line with XRPD 'up to 2 hours'): 0.025 mg/mL
